{"source": "ChEMBL document CHEMBL3407491", "about": "“Synthesis, characterization and in vitro photodynamic antimicrobial activity of basic amino acid-porphyrin conjugates” (Eur J Med Chem, 2015)", "key": {"[1]": {"test": "Toxicity against human […] cells irradiated with 6 J/cm2 radiation assessed as cell viability at 7.81 uM by MTT assay", "type": "cell-based", "conditions": "read-out: Activity"}, "[2]": {"test": "Photostability at 2 x 10^-5 mol/L exposed to 4.2 mW/cm2 light energy density assessed as change in absorption spectra after 30 mins post irradiation", "type": "physicochemical", "conditions": "0.5 h, 20 µM"}, "[3]": {"system": "Escherichia coli", "test": "Bactericidal activity against Escherichia coli ATCC 25922 incubated in dark for 30 mins followed by exposure to light fluences at 650 nm and 6 J/cm2 and then incubated overnight followed by further incubation on LB agar plates for another 24 hrs", "type": "functional", "conditions": "ATCC 25922, light or radiation study"}, "[4]": {"system": "Escherichia coli", "test": "Antibacterial activity against Escherichia coli ATCC 25922 at 0.49 uM to 7.8 uM incubated in dark for 30 mins followed by exposure to light fluences at 650 nm and 6 J/cm2 and then incubated overnight measured after 24 hrs", "type": "functional, organism-based"}, "[5]": {"test": "Toxicity against human […] cells assessed as reduction in cell viability by MTT assay", "type": "cell-based"}, "[6]": {"system": "Pseudomonas aeruginosa", "test": "Antibacterial activity against Pseudomonas aeruginosa ATCC 27853 at 3.91 uM to 62.50 uM incubated in dark for 30 mins followed by exposure to light fluences at 650 nm and 6 J/cm2 and then incubated overnight measured after 24 hrs", "type": "functional, organism-based"}, "[7]": {"test": "Toxicity against human […] cells assessed as cell viability at 3.91 to 62.5 uM under dark conditions by MTT assay", "type": "cell-based", "conditions": "read-out: Activity"}, "[8]": {"system": "Pseudomonas aeruginosa", "test": "Drug uptake in Pseudomonas aeruginosa ATCC 27853 at 12.5 uM by confocal laser scanning microscopy", "type": "ADME, organism-based", "conditions": "in vivo"}, "[9]": {"system": "Staphylococcus aureus", "test": "Antibacterial activity against methicillin-resistant Staphylococcus aureus incubated in dark for 30 mins measured after 24 hrs", "type": "functional"}, "[10]": {"system": "Staphylococcus aureus", "test": "Antibacterial activity against methicillin-resistant Staphylococcus aureus at 0.49 uM to 7.8 uM incubated in dark for 30 mins followed by exposure to light fluences at 650 nm and 6 J/cm2 and then incubated overnight measured after 24 hrs", "type": "functional, organism-based"}, "[11]": {"system": "Pseudomonas aeruginosa", "test": "Antibacterial activity against Pseudomonas aeruginosa ATCC 27853 at 0.49 uM to 7.8 uM incubated in dark for 30 mins followed by exposure to light fluences at 650 nm and 6 J/cm2 and then incubated overnight measured after 24 hrs", "type": "functional, organism-based"}, "[12]": {"system": "Escherichia coli", "test": "Antibacterial activity against Escherichia coli ATCC 25922 incubated in dark for 30 mins measured after 24 hrs", "type": "functional"}, "[13]": {"test": "Stability in mouse serum assessed as compound remaining after 24 hrs by RP-HPLC method", "type": "ADME", "conditions": "read-out: Stability"}, "[14]": {"system": "Pseudomonas aeruginosa", "test": "Antibacterial activity against Pseudomonas aeruginosa ATCC 27853 incubated in dark for 30 mins and grown for 24 hrs followed by further incubation on LB agar plates for another 24 hrs", "type": "functional"}, "[15]": {"system": "Escherichia coli", "test": "Drug uptake in Escherichia coli ATCC 25922 at 12.5 uM by confocal laser scanning microscopy", "type": "ADME, organism-based", "conditions": "in vivo"}, "[16]": {"system": "Staphylococcus aureus", "test": "Antibacterial activity against methicillin-resistant Staphylococcus aureus incubated in dark for 30 mins followed by exposure to light fluences at 650 nm and 6 J/cm2 and then incubated overnight measured after 24 hrs", "type": "functional", "conditions": "light or radiation study"}, "[17]": {"system": "Escherichia coli", "test": "Antibacterial activity against Escherichia coli ATCC 25922 assessed as log reduction in bacterial count at 2 uM incubated in dark for 30 mins followed by exposure to light fluences at 650 nm and 6 J/cm2 and then incubated overnight measured after 24 hrs", "type": "functional"}, "[18]": {"test": "Singlet oxygen generation of the compound exposed to 4.2 mW/cm2 light energy density assessed as singlet oxygen quantum yield measured at 410 nm in 10 seconds intervals of irradiation at 0.2 uM by DPBF scavenger based assay"}, "[19]": {"system": "Staphylococcus aureus", "test": "Antibacterial activity against methicillin-resistant Staphylococcus aureus incubated in dark for 30 mins and grown for 24 hrs followed by further incubation on LB agar plates for another 24 hrs", "type": "functional"}, "[20]": {"system": "Pseudomonas aeruginosa", "test": "Antibacterial activity against Pseudomonas aeruginosa ATCC 27853 assessed as log reduction in bacterial count at 3.5 uM incubated in dark for 30 mins followed by exposure to light fluences at 650 nm and 6 J/cm2 and then incubated overnight measured after 24 hrs", "type": "functional"}, "[21]": {"system": "Staphylococcus aureus", "test": "Bactericidal activity against methicillin-resistant Staphylococcus aureus incubated in dark for 30 mins followed by exposure to light fluences at 650 nm and 6 J/cm2 and then incubated overnight followed by further incubation on LB agar plates for another 24 hrs", "type": "functional", "conditions": "light or radiation study"}, "[22]": {"system": "Pseudomonas aeruginosa", "test": "Antibacterial activity against Pseudomonas aeruginosa ATCC 27853 incubated in dark for 30 mins followed by exposure to light fluences at 650 nm and 6 J/cm2 and then incubated overnight measured after 24 hrs", "type": "functional", "conditions": "ATCC 27853, light or radiation study"}, "[23]": {"system": "Pseudomonas aeruginosa", "test": "Antibacterial activity against Pseudomonas aeruginosa ATCC 27853 assessed as log reduction in bacterial count at 7.81 uM incubated in dark for 30 mins followed by exposure to light fluences at 650 nm and 6 J/cm2 and then incubated overnight measured after 24 hrs", "type": "functional, organism-based"}, "[24]": {"system": "Staphylococcus aureus", "test": "Antibacterial activity against methicillin-resistant Staphylococcus aureus assessed as log reduction in bacterial count at 2 uM incubated in dark for 30 mins followed by exposure to light fluences at 650 nm and 6 J/cm2 and then incubated overnight measured after 24 hrs", "type": "functional"}, "[25]": {"system": "Escherichia coli", "test": "Antibacterial activity against Escherichia coli ATCC 25922 incubated in dark for 30 mins followed by exposure to light fluences at 650 nm and 6 J/cm2 and then incubated overnight measured after 24 hrs", "type": "functional", "conditions": "ATCC 25922, light or radiation study"}, "[26]": {"system": "Escherichia coli", "test": "Antibacterial activity against Escherichia coli ATCC 25922 incubated in dark for 30 mins and grown for 24 hrs followed by further incubation on LB agar plates for another 24 hrs", "type": "functional"}, "[27]": {"system": "Pseudomonas aeruginosa", "test": "Bactericidal activity against Pseudomonas aeruginosa ATCC 27853 incubated in dark for 30 mins followed by exposure to light fluences at 650 nm and 6 J/cm2 and then incubated overnight followed by further incubation on LB agar plates for another 24 hrs", "type": "functional", "conditions": "ATCC 27853, light or radiation study"}, "[28]": {"system": "Escherichia coli", "test": "Antibacterial activity against Escherichia coli ATCC 25922 assessed as log reduction in bacterial count at 7.81 uM incubated in dark for 30 mins followed by exposure to light fluences at 650 nm and 6 J/cm2 and then incubated overnight measured after 24 hrs", "type": "functional, organism-based"}, "[29]": {"system": "Pseudomonas aeruginosa", "test": "Antibacterial activity against Pseudomonas aeruginosa ATCC 27853 incubated in dark for 30 mins measured after 24 hrs", "type": "functional"}, "[30]": {"system": "Escherichia coli", "test": "Antibacterial activity against Escherichia coli ATCC 25922 at 3.91 uM to 62.50 uM incubated in dark for 30 mins followed by exposure to light fluences at 650 nm and 6 J/cm2 and then incubated overnight measured after 24 hrs", "type": "functional, organism-based"}, "[31]": {"system": "Staphylococcus aureus", "test": "Drug uptake in methicillin-resistant Staphylococcus aureus at 12.5 uM by confocal laser scanning microscopy", "type": "ADME, organism-based", "conditions": "in vivo"}, "[32]": {"test": "Octanol water partition coefficient, log P of the compound by reverse-phase thin-layer chromatography", "type": "physicochemical"}}, "note": "Active and inactive are the calls of the source. The calls are words filed in the database; no cut-off is given here.", "data": [{"smiles": "NCCCC[C@H](N)C(=O)Nc1ccc(-c2c3nc(c(-c4ccc(NC(=O)[C@@H](N)CCCCN)cc4)c4ccc([nH]4)c(-c4ccc(NC(=O)[C@@H](N)CCCCN)cc4)c4nc(c(-c5ccc(NC(=O)[C@@H](N)CCCCN)cc5)c5ccc2[nH]5)C=C4)C=C3)cc1", "values": [{"measurement": "viability at 7.81 µM", "setting": "[1]", "value": "> 85", "unit": "%"}, {"measurement": "Activity", "setting": "[2]", "value": "< 20", "unit": "%"}, {"measurement": "MBC", "setting": "[3]", "value": 3.91, "unit": "µM"}, {"measurement": "Activity", "setting": "[4]", "value": "Dose-dependent effect"}, {"measurement": "Activity", "setting": "[5]", "value": "Dose-dependent effect"}, {"measurement": "Activity", "setting": "[6]", "value": "Dose-dependent effect"}, {"measurement": "viability at 62.5 µM", "setting": "[7]", "value": "> 90", "unit": "%"}, {"measurement": "Drug uptake", "setting": "[8]", "value": "Active"}, {"measurement": "MIC", "setting": "[9]", "value": 62.5, "unit": "µM"}, {"measurement": "Activity", "setting": "[10]", "value": "Dose-dependent effect"}, {"measurement": "Activity", "setting": "[11]", "value": "Dose-dependent effect"}, {"measurement": "MIC", "setting": "[12]", "value": 62.5, "unit": "µM"}, {"measurement": "remaining at 24 h", "setting": "[13]", "value": 85, "unit": "%"}, {"measurement": "MBC", "setting": "[14]", "value": "> 500", "unit": "µM"}, {"measurement": "Drug uptake", "setting": "[15]", "value": "Active"}, {"measurement": "MIC", "setting": "[16]", "value": 3.91, "unit": "µM"}, {"measurement": "FC", "setting": "[17]", "value": 3}, {"measurement": "Activity", "setting": "[18]", "value": 0.95}, {"measurement": "MBC", "setting": "[19]", "value": 125, "unit": "µM"}, {"measurement": "FC", "setting": "[20]", "value": 3}, {"measurement": "MBC", "setting": "[21]", "value": 7.81, "unit": "µM"}, {"measurement": "MIC", "setting": "[22]", "value": 7.81, "unit": "µM"}, {"measurement": "Activity", "setting": "[23]", "value": "Active"}, {"measurement": "FC", "setting": "[24]", "value": 3}, {"measurement": "MIC", "setting": "[25]", "value": 1.95, "unit": "µM"}, {"measurement": "MBC", "setting": "[26]", "value": 125, "unit": "µM"}, {"measurement": "MBC", "setting": "[27]", "value": 15.6, "unit": "µM"}, {"measurement": "Activity", "setting": "[28]", "value": "Active"}, {"measurement": "MIC", "setting": "[29]", "value": 250, "unit": "µM"}, {"measurement": "Activity", "setting": "[30]", "value": "Dose-dependent effect"}, {"measurement": "Drug uptake", "setting": "[31]", "value": "Active"}, {"measurement": "logP", "setting": "[32]", "value": 0.9}]}]}
